In US9351971B2, “Substituted 2,2′-biphenazines for treating diseases” (Eutropics Pharmaceuticals, Inc., priority 2010, dated 2016):

Assays:
Mcl-1 = target: T1, Mcl-1 (Homo sapiens, UniProt Q07820); test: Fluorescence polarization assay, Bim BH3 peptide binding to GST-Mcl-1
T1 construct: made in house; host or cells: E. coli
Description: A nineteen amino acid peptide, corresponding to the BH3 domain of Bim, with the sequence FITC-GGGIAQELRRIGDEFNAY (SEQ ID NO: 1) was labeled with the tluorophore FITC according to the manufacturer's instructions (Molecular Probes, Eugene, Oreg.). This sequence was identified as being able to bind to purified Bcl-xL protein (Sattler et al. (1997) Science 275(5302): 983-86) and to have biological activity in cells (Holinger et al. J. Biol. Chem. 274; 13298-1330).
In addition, recombinant GST -Mcl-1 and GST-Bcl-xL fusion proteins were generated in E.coli and purified using glutathione-sepharose beads using conventional techniques known to those skilled in the fields of biochemistry and molecular biology, (methods for preparation are described in Strategies for Protein Purification and Characterization, Marshak, D, Kadonga, J, Burgess R, Knuth, M, Brennan, W, Sue-Hwa, L, CSH press, Cold Spring Harbor, N.Y.). Binding of the recombinant proteins to the fluorescent Bim BH3 domain was confirmed by titration of increasing concentrations of the recombinant proteins against a constant amount of labeled Bim peptide (16.65 nM). Quantitation of binding was accomplished by FP assay with mP measurements made on the Analyst-GT reader (Molecular Devices, Sunnyvale, Calif.).
Further, the ability of compound A to disrupt the interaction between the fluorescent Bim BH3 peptide and the two fusion proteins was assessed using a fluorescence polarization assay. The Bim peptide (in solution at 4 nano-Molar) and either GST-Mcl-1 (in solution at 12.5 nM) or GST-Bcl-xL (in solution at 11.8 nM) were first combined together in phosphate buttered saline buffer, and then the compound solution in DMSO was added to final concentrations ranging from 10 μM to 0.1 nM). Normally the unbound Bim polypeptide results in polarization of 5 mP units. Upon binding of the GST-Bcl-xL and GST-Mcl-1 fusion protein, polarization increased to 100 mP units.
(§1) Experiments are performed using the fluorescence polarization assay as described in Example 2. Either Bcl-xL or Mcl-1 fusion proteins were titrated and maximum mp shift indicate binding concentrations for drug titration studies, as described in Example 2. Compound II-19, was titrated from 10 μM to 0.1 nM in 2 fold serial dilution into the peptide/protein solution. The IC50 for blocking each BH3 peptide from Mcl-1 are assessed using FP, as described in Example 2.
as §1, with “Either GST-Bcl-xL” for “Either Bcl-xL”, “or GST-Mcl-1” for “or Mcl-1”, “Compound II-20,” for “Compound II-19,”, “in 2-fold” for “in 2 fold”

SUDHL-10 cell line = test: Cell viability MTS assay, SUDHL-10 (Bax/Bak deficient); type: cell-based, human
Protocol: The lymphoid derived cell lines DHL-6 and DHL-10 were obtained from Anthony Letai of the Dana Father Cancer Research Institute, Boston, Mass. The […] derived cell line NCP-H929 was obtained irons, the NIH/NCI cell repository. AML-3 cells were obtained from Dr. Michael Andreef (MD Anderson Cancer Center, Houston, Tex.). Cells were grown in RPMI 1640 medium (GIBCO-BRL) supplemented with Pen-strep-glutamine (Gibco 10378) and 5% fetal bovine serum.
Cells were expanded in tissue culture in appropriate media and then subcultured into 96-well plates at a seeding density of 20,000-40,000 cells per well, and cells were treated with one or more compounds that were titrated info appropriate medium with FCS. Cell lines were treated with compound A at concentrations ranging from 25 μM to 25 nM. The BH3-mimetic obatoclax (Nguyen M et al. (2007), Proc. Natl. Acad. Sci. USA 104:19512-19517) was also tested against the SUDHL-6, SUDHL-10, and NCI-H929 cell lines. Cells were treated for 48 hours and scored for viability using the MTS assay (Promega). Growth inhibition was indicated as a percentage of control cell growth. Growth was determined by measuring the A570 (control cells)—A570 (treated cells)/A570 (control cells). EC50 values were calculated using Graphpad Prizm software.

T1 sequence (Q07820 whole entry): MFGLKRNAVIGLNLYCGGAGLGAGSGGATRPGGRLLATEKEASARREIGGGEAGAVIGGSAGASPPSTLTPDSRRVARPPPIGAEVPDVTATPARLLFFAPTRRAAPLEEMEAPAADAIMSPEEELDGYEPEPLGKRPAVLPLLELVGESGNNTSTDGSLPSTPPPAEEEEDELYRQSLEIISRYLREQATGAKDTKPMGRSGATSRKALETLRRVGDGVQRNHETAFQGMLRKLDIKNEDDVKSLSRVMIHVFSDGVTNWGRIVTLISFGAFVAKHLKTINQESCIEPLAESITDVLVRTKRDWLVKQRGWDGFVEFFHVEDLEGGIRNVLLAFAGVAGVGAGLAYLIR

IC50 (Mcl-1; fluorescence polarization, Bim-BH3-FITC peptide, GST-Mcl-1, read-out: IC50, inhibition of Bim-BH3 peptide binding to Mcl-1): 7 nM
preference for inhibition of Mcl-1 vs. Bcl-xL (Mcl-1; ratio of FP IC50 values): 2 fold
SMILES: COC(=O)c1ccc(O)c2nc3c(C=O)c(O)c(-c4c(O)c(C=O)c5nc6c(O)ccc(C(=O)OC)c6nc5c4O)c(O)c3nc12 [II-19, dimethyl 4,4′-diformyl-1,1′,3,3′,6,6′-hexahydroxy-[2,2′-biphenazine]-9,9′-dicarboxylate]
EC50 (SUDHL-10 cell line; Homo sapiens, SU-DHL10, 48 hours, MTS assay, Bax/Bak deficient cell line, read-out: EC50, cell killing in SUDHL-10): > 20000 nM
activity against the Bax/Bak deficient cell line SUDHL-10 (in words) (SUDHL-10 cell line; cell killing, FIG. 4d): absence of activity
